Test results: patent US7601715B2, “Process for preparing triazole substituted azaindoleoxoacetic piperazine derivatives and novel salt forms produced therein” (Bristol-Myers Squibb Company, priority 2005, dated 2009)

Test: Moisture-sorption isotherm (VTI SGA-100 Symmetric Vapor Analyzer)
Assay type: physicochemical
Settings: range from about 25% RH to about 75% RH at 25° C.; FIG. 8
Experimental: 10. Moisture-sorption isotherms were collected in a VTI SGA-100 Symmetric Vapor Analyzer using approximately 10 mg of sample. The sample was dried at 60° C. until the loss rate of 0.0005 wt %/min was obtained for 10 minutes. The sample was tested at 25° C. and 3 or 4, 5, 15, 25, 35, 45, 50, 65, 75, 85, and 95% RH. Equilibration at each RH was reached when the rate of 0.0003 wt %/min for 35 minutes was achieved or a maximum of 600 minutes.

weight gain / weight water uptake (moisture-sorption isotherm): about 0.1%
SMILES: O=C(C(=O)N1CCN(C(=O)c2ccccc2)CC1)c1c[nH]c2c(-n3ccnn3)ncc(F)c12
